Source: patent US9682970B2, “Fluorescent compounds and uses thereof” (BIOTIUM, INC., priority 2012, dated 2017)

Tests used:
[1] = system: calf thymus dsDNA; experiment: Absorption and emission spectra of nucleic acid binding dyes; type: physicochemical
Experimental: All absorption spectra were measured on a Beckman Coulter DU-800 spectrophotometer at room temperature. All fluorescence spectra were measured on a Hitachi F-4500 fluorescence spectrophotometer at room temperature. To record the complete emission profiles, excitation wavelengths were set 30 nm shorter than the absorption maxima of the dyes. The dsDNA used was calf thymus dsDNA from Sigma. When dsDNA was present in the dye solutions, spectra were recorded after the dyes had been incubated with the DNA for at least 10 minutes.

[2] = system: calf thymus DNA; experiment: DNA quantitation in solution (fluorescence linearity)
Experimental: compounds 5, 7 and related compounds according to the invention can be used to quantitate double-stranded DNA in solution with high sensitivity and accuracy over a wide range of DNA concentrations, as shown in FIGS. 4 and 5. […] At […] dye concentration, compound 5 fluorescence is linear from 0.04-250 ng (FIG. 5).
The data shown in FIG. 4A was obtained under the following conditions: compound 7 at 0.5 μM was prepared in TE buffer (10 mM Tris, 1 mM EDTA, pH 7.5), and pipetted into wells of black 96-well plates at 200 μL per well. Two-fold dilutions of calf thymus DNA were prepared in TE buffer starting at 0.2 ng/uL, and 10 μL of each DNA dilution was added per 96 well to obtain a standard curve of 2 ng to 0.015 ng per well. The plates were incubated for five minutes at room temperature, protected from light, then read at 468 nm excitation and 507 nm emission using a Molecular Devices Gemini XS fluorescent plate reader. Triplicate samples were averaged and background fluorescence (no DNA) was subtracted. Fluorescence values were plotted against the DNA amount (ng/well). […] The R^2 values for linear regression are shown next to each curve. The data shown in FIG. 4B were obtained under similar condition except that compound 5 at 1 uM was used and serial DNA dilutions were from 250 ng to 0.04 ng.

[3] = system: live HeLa cells; experiment: Staining of live cells; type: cell-based; conditions: 10 uM, 30 minutes at 37 C
Experimental: (§1) The images in the top panel of FIG. 6 were obtained under the following conditions: live HeLa cells were incubated with 10 uM compound 7, compound 8, or Dye 5 for 30 minutes at 37 C in a CO2 incubator. The images in the bottom panel of FIG. 6 were obtained under the following conditions: HeLa cells were formaldehyde-fixed, permeabilized, and blocked according to standard immunofluorescence staining protocols. Cell were stained with 10 μM compound 7, 8 or 5 in PBS/5% BSA for 30 minutes, then washed with PBS buffer and imaged. Live and fixed cells were imaged using an Olympus epifluorescence microscope equipped with a FITC filter set, Retiga 2000R Fast 1394 camera (QImaging), and Image-Pro Express software (Media Cybernetics).

[4] = system: HeLa cells formaldehyde-fixed, permeabilized; experiment: Staining of fixed cells; type: cell-based; conditions: 10 μM in PBS/5% BSA, 30 minutes
Experimental: as §1

[5] = system: Jurkat cells; experiment: Cell number quantitation in cell suspensions; type: cell-based; conditions: 10 uM final dye, 30 minutes at 37° C., 440,000 to 860 cells per well
Experimental: The data in FIG. 7A were obtained under the following conditions: compound 5 or 7 at 20 uM in Hank's Balanced Salt Solution (HBSS) was pipetted into optical bottom black 96 well tissue culture plates at 50 μL per well. Two-fold serial dilutions of Jurkat cells in suspension culture were prepared in Hank's Balanced Salt Solution (HBSS) and pipetted into black 96 well plates at 50 μL per well to obtain a dilution curve of 440,000 to 860 cells per well, and a final dye concentration of 10 uM. Plates were incubated for 30 minutes at 37° C. in a 5% CO2 incubator, and fluorescence was read at 468/507 nm in a Molecular Devices Gemini XS fluorescent plate reader. Triplicate samples were averaged and background fluorescence (no cells) was subtracted. Fluorescence values were plotted against the DNA amount (ng/well). The R^2 values for linear regression are shown next to each curve. For comparison, cell numbers were quantitated using the CyQUANT NF Cell Proliferation Assay Kit (Life Technologies) according to the kit manual.

[6] = system: adherent HeLa cells; experiment: Cell number quantitation in adherent cell cultures; type: cell-based; conditions: 10 uM, 30 minutes at 37° C., 50,000 to 100 cells per well
Experimental: The data in FIG. 7B was obtained under the following conditions: adherent HeLa cells were seeded at densities ranging between 50,000 and 100 cells per well in optical bottom black 96 well tissue culture plates and allowed to adhere overnight at 37° C. in a 5% CO2 incubator. On the day after seeding, the cells were washed with HBSS and incubated in HBSS containing Dye 5 or Dye 7 at 10 uM for 30 minutes at 37° C. Fluorescence was read at 468/507 nm in a Molecular Devices Gemini XS fluorescent plate reader. Triplicate samples were averaged and background fluorescence (no cells) was subtracted. Fluorescence values were plotted against the DNA amount (ng/well). The R^2 values for linear regression are shown next to each curve. For comparison, cell numbers were quantitated using the CyQUANT NF Cell Proliferation Assay Kit (Life Technologies according to the kit manual.

[7] = system: linearized GAPDH-containing plasmid DNA; experiment: Real-time PCR with plasmid DNA; conditions: 0.34 uM dye, 5×10^5 copies plasmid
Experimental: Compound 7 and related dyes can be used in real time PCR experiments to monitor amplification of target plasmid DNA. In FIG. 8, 5×10^5 copies of linearized GAPDH-containing plasmid DNA or water (non-template controls, NTC) were added to PCR reaction mixes containing 0.34 uM of either SYBR Green I (lines with solid diamonds (DNA) or “x's” (water)) or Compound 7 (lines with triangles (DNA) or circles (water)) and real time PCR was performed. […] The data in FIG. 8 were collected under the following conditions: PCR reactions consisted of a final concentration of 50 mM Tris-HCl (pH 8.6), 3 mM MgCl2, 50 μg/ml non-acetylated BSA (Sigma), 200 μM dNTPs (New England BioLabs), 500 nM GAPDH Forward primer ([NT]), 500 nM GAPDH Reverse primer ([NT]) (Integrated DNA Technologies), 1 U Hot-Start Cheetah Taq (Biotium, Inc.) and either 0.34 uM SYBR Green I (Life Technologies) or 0.34 uM compound 7. One microliter of 5×10^5 copies linearized pCMV-SPORT6 GAPDH plasmid (Open Biosystems) was added to each 20 ul reaction. Real time PCR was performed using the RotorGeneQ with the following cycling conditions: 95° C. for 2 minutes, followed by 45 cycles of 95° C. for 5 seconds and 60° C. for 30 seconds, with data acquisition during the elongation stage on the green channel.

[8] = system: GAPDH cDNA from Jurkat cell purified mRNA; experiment: Real-time PCR with cDNA; conditions: 0.34 uM dye
Experimental: Compound 7 and related dyes can be used in real time PCR experiments to monitor amplification of target cDNA. In FIG. 9, serial dilutions of total cDNA generated from Jurkat cell purified mRNA were added to PCR reaction mixes containing 0.34 uM compound 7 and real time PCR was performed.
The data in FIG. 9 were collected under the following conditions: mRNA was purified from 4×10^6 Jurkat cells using Qiagen's RNeasy Kit and cDNA was then generated using oligo-dT primers and the ProtoScript First Strand cDNA Synthesis Kit (New England BioLabs). Serial 1:2 dilutions of the cDNA in water were prepared and added to PCR reactions consisting of a final concentration of 25 mM Tris-HCl (pH 8.6), 5 mM KCl, 10 mM (NH4)2SO4, 2 mM MgCl2, 2.5% glycerol, 5% DMSO, 200 uM dNTPs (New England BioLabs), 0.01% Tween-20, non-acetylated BSA (Sigma), 500 nM GAPDH Forward primer (5′-GAAGGTGAAGGTCGGAGTC-3′), 500 nM GAPDH Reverse primer (5′-[…]-3′) (Integrated DNA Technologies), 1 U Taq polymerase (Syzygy) modified using a HotStart Polymerase Modification Kit (Biotium, Inc.) and 0.34 uM compound 7. One microliter cDNA was added to each 20 ul reaction. Real time PCR was performed using the RotorGeneQ as described for FIG. 8.

[9] = system: CD3e PCR products (WT or single base pair change); experiment: High-resolution melt curve analysis (HRM); design: species or system human; conditions: compound 7 (0.07 μM) spiked into EvaGreen Master Mix
From the text: The addition of a small amount of compound 7 to existing real time HRM Master Mixes can improve the resolution of the melting curves leading to higher confidence calls by HRM software. FIGS. 12 and 13 show normalized graphs (12A, 13A) and difference graphs (12B, 13B) from the HRM analysis of PCR products generated from template plasmids containing either a WT copy of CD3e or a version with a single base pair change. The genotype calls of the HRM software are also shown (12C, 13C).
The data in FIGS. 12 and 13 were collected under the following conditions: PCR reactions were performed as in FIG. 10 with 500 nM CD3e Forward primer (5′-[…]-3′) and […] CD3e Reverse primer (5′-[…]-3′). To each reaction, one microliter of approximately 1×10^6 copies/μl pME-human CD3e-6× His-HA was added, either with a wild type (WT) sequence or with a single nucleotide change (C to T) at base 54 from the start codon of the CD3e sequence. HRM analysis was performed on the RotorGeneQ immediately following template amplification from a temperature range of 76.5-86.5° C. ramping 0.1° C. every two seconds after initial 90 second pre-melt conditioning.

[10] = system: HeLa cells fixed in 4% paraformaldehyde; experiment: Staining of fixed cells with Compound 36; type: cell-based; conditions: 10 uM in blocking buffer, 10 minutes, Cy3 channel
Experimental: The high photostability and relatively long emission wavelength (˜565 nm) make the dye a useful cell counterstain. HeLa cells were plated on an 8-chambered Lab-Tek cover glass at 4×10^4 cells per chamber and cultured overnight. The day after plating, the cells were fixed in 4% paraformaldehyde/PBS for 15 minutes at room temperature. The cells were rinsed in PBS and blocked in PBS containing 5% normal goat serum and 0.1% Triton X-100 for 30 minutes at room temperature. Cells were stained with 10 uM Dye 36 in blocking buffer for 10 minutes at room temperature and imaged in the same solution by confocal microscopy in the Cy3 channel of a Zeiss LSM 700 confocal microscope.

[11] = Photostability of the dye; type: physicochemical
[12] = in the presence of dsDNA, 10 mM pH 7.4 Tris buffer, room temperature
[13] = 0.5 μM dye concentration, DNA 0.015-2 ng

With `CCCN(CCCNC1=CC(=Cc2sc3ccccc3[n+]2C)c2ccccc2N1c1ccccc1)C(=N)N` [compound 5] the “fluorescence upon DNA binding” value ([1]; 10 mM pH 7.4 Tris, with DNA) was “highly fluorescent”, the absorption maximum [1, 12] was roughly 470 nm and the emission maximum [1, 12] was roughly 520 nm. For the same compound, the “DNA amount range of linearity of fluorescence” value ([2]; 1 uM concentration (FIG. 4B)) was 0.05 to 250 ng, the “DNA amount range over which fluorescence is linear” value ([2]; 1 mM dye concentration) was 0.04 to 250 ng and the “staining of nuclei of live cells” value [3] was “can specifically stain the nuclei”. For the same compound, the “staining of nuclei of fixed cells” value [4] was “can specifically stain the nuclei”, the “quantitation of cell numbers in cell suspensions” value [5] was “can be used to quantitate cell numbers” and the “quantitation of cell numbers in adherent cell cultures” value [6] was “can be used to quantitate cell numbers”.

In the case of `CN(C)CCCN(CCCN(C)C)c1cc(C=C2Sc3ccccc3N2C)c2ccccc2[n+]1-c1ccccc1` [PicoGreen, reference compound], the “linearity of fluorescence at lower DNA concentrations” value [2, 13] is reported as “lower than that of compound 7”.

With `CCCN(CCCNC1=CC(=Cc2sc3cccc4c3[n+]2CCC4)c2ccccc2N1c1ccccc1)C(=N)N` [compound 8] the “staining of nuclei of live cells” value [3] was “can specifically stain the nuclei” and the “staining of nuclei of fixed cells” value [4] was “can specifically stain the nuclei”.

For `CCCN(CCCNC1=CC(=Cc2sc3cccc4c3[n+]2CCC4)c2ccccc2N1c1ccccc1)C1=NCCN1` [compound 7], the “sensitivity (slope of the titration curve) compared to PicoGreen” value [2, 13] was “more sensitive than PicoGreen”, the “staining of nuclei of live cells” value [3] was “can specifically stain the nuclei” and the “staining of nuclei of fixed cells” value [4] was “can specifically stain the nuclei”. The “quantitation of cell numbers in cell suspensions” value [5] was “can be used to quantitate cell numbers”, the “quantitation of cell numbers in adherent cell cultures” value [6] was “can be used to quantitate cell numbers” and the “Ct value (in words)” value [7] was “early”. The “amplification of target amplicon” value [7] was “efficient amplification”, the endpoint fluorescent signal [7] was “high” and the “amplification of target amplicon from serial cDNA dilutions” value [8] was “efficient amplification”. The “effect on HRM analysis resolution” value [9] was “improves HRM analysis resolution”.

With `CC(=N)NCc1ccc2c(c1)C(C)(C)C(=CC(C)=CC1=[N+](C)c3ccc(CNC(C)=N)cc3C1(C)C)N2C` [Compound 36] the emission wavelength [1] was roughly 565 nm, the “staining of nuclei of fixed cells” value [10] was “good specificity” and the photostability [11] was “high”.
